Measured values taken from patent publication US6342485B1, “Synergistic compositions useful as anti-tumor agents” (priority 1999, dated 2002).
Like-named read-outs stand apart in the source and are kept apart here.

Assays:
[1] = cited from earlier work
[2] = tested on: H630 human colorectal tumor cells; experiment: cells; details: NCI-H630, 24 h
Protocol: (§2) The antiproliferative activities of FdUMP[10] and 5-FU for the human colorectal tumor cell lines H630 and H630-10 were compared using an assay for 3-(4,5-dimethylthiazol-2-yl)-2,5-diphenyltetrazolium bromide (MTT). H630 and H630-10 cells were cultured using RPMI 1640 containing L-glutamine and supplemented with 10% Nu-serum IV. All culture media were supplemented with penicillin/streptomycin. 25,000 cells were plated (96 well flute-bottom plate) in 200 μL of medium at 37° C. overnight in an air atmosphere containing 5% CO2. The medium was replaced the next day, and cells were exposed to the drugs for 24 h. The medium was then removed from the plates and replaced with 100 μL of fresh medium and 25 μL of MTT solution (5 μg/μL in PBS) per well. Following 2 h incubation, 100)L of MTT solvent (20% w/v SDS dissolved in DMF:H2O [1:1], pH 4.7) was added to each well and the plates were incubated overnight (Senderoff et al., 1990). The plates were analyzed the following morning on a Titerek Multiscan Plus 96-well plate analyzer (v.1.4). The number of viable cells in each well containing cells treated with drug was calculated from the absorbance at 570 nm compared to untreated controls. The means and standard deviation at each concentration for each drug were calculated using standard statistical methods. MTT assays were run in duplicate or triplicate to assure the statistical significance of the results.

[3] = tested on: H630-10 human colorectal tumor cells; experiment: MTT assay; type: cell-based; details: H630-10 cells, 24 h drug exposure
From the text: All culture media were supplemented with penicillin/streptomycin.

[4] = tested on: H630-10 human colorectal tumor cells; experiment: Clonogenic assay; type: cell-based; details: H630-10 cells, 72 h drug exposure
Protocol: (§1) About one thousand viable H630 or H630-10 cells suspended in 10 mL of RPMI 1640 medium with 9% NU serum IV were grown at 37° C. in a humidified 5% CO2-air atmosphere in 100×20 mm plastic petri dishes. After 48 h, the medium was removed, and replaced with 10 mL of fresh medium containing either 5-FU, FdUMP[10], or both 5-FU and FdUMP[10]. After 72 h, the medium containing drugs was removed and replaced by fresh medium. Plates were incubated for 2 to 3 weeks with fresh medium added, if necessary, after which the medium was removed, and the clones were identified by staining with 0.1% methylene blue in 70% ethanol aqueous solution. The number of surviving colonies was counted, and calculated as a percent of controls. Each study was repeated twice.

[5] = tested on: H630 human colorectal tumor cells; experiment: Clonogenic assay; type: cell-based; details: for IC50: Clonogenic assay, H630 cells, 72 h drug exposure
Protocol: as §1

[6] = tested on: H630 human colorectal tumor cells
Protocol: as §2

H630 cells = experiment: TUNEL assay for induction of apoptosis; type: cell-based, human; details: TUNEL staining, H630 cells exposed for 72 h, data not shown
Protocol: About one million H630 cells were seeded into each of the T-75 cell culture flasks. Two days later, after two doubling times, the cells were exposed to FdUMP[10]. The cells were exposed to FdUMP[10] for 72 h, and then fixed with 1% methanol-free formaldehyde for 20 min at 0° C. The fixed-cells were then placed in a 70% ethanol solution at −20° C. for two weeks. The ethanol was then removed, and the cells were washed with PBS and incubated with TdT buffer (Promega), containing equilibration buffer, nucleotide mixture and TdT enzyme, at 37° C. for 1 hour. The reaction was terminated by addition of EDTA solution and the incubation buffer was then removed. The cells were then treated with 0.1% Triton, followed by propidium iodide containing DNase-free RNAse. The cells were kept at room temperature for 30 min, and then analyzed by flow cytometry.

cells = experiment: Preliminary rescue experiments on the mechanism of cytotoxicity; type: cell-based

Compound	half-life in-vivo [1]	IC50 [2] [µM]	IC50 ([3]; Homo sapiens) [µM]	IC50 ([4]; Homo sapiens) [µM]	IC50 ([5]; Homo sapiens, NCI-H630) [µM]	efficiency of FdUMP[10] relative to 5-FU [6]	IC50 ([6]; MTT assay, H630 cells, 24 h drug exposure) [µM]	IC50 [3] [µM]	cells undergoing apoptosis (H630 cells) [%]	IC50 [4] [µM]	IC50 [5] [µM]	effect on the growth of H630 cells as single agent ([5]; FdUMP[10] alone at 4.0×10^−8 and 6.0×10^−8 M)	rescue of cells from FdUMP[10] by deoxythymidine (cells)	reversal of the effects of FdUMP[10] by uridine (cells)
O=c1[nH]cc(F)c(=O)[nH]1 [5-FU, 5-fluorouracil, reference compound]	about 18 minutes	4.87	27.1	75	3.9									
FdUMP[10]						about 400 times	0.0169	0.0995	~100	0.071	0.25	no significant effect	does not rescue	partially reverse
